From ChEMBL document CHEMBL1201862, “PubChem BioAssay data set” (2004)
One block for each compound: values may come before it. The source made the active and inactive calls.

Key:
[1] = target: X-box-binding protein 1 (Homo sapiens, UniProt P17861); type: functional, Cricetulus griseus;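 further: confirmatory dose-response counter-screen serving a CHOP assay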
[2] = target: Sphingosine 1-phosphate receptor 1 (Homo sapiens, UniProt P21453); test: Dose Response Cell-Based Assay for Agonists of the Sphingosine 1-Phosphate Receptor 1 (S1P1): Purchased Analogues. [Related pubchem assays: 1192, 373, 439 ]; type: functional
[3] = target: Sphingosine 1-phosphate receptor 3 (Homo sapiens, UniProt Q99500); test: Dose Response Cell-Based Assay for Agonists of the Sphingosine 1-Phosphate Receptor 3 (S1P3): Purchased Analogues. [Related pubchem assays: 373, 439 ]; type: functional
[4] = target: Sphingosine 1-phosphate receptor 4 (Homo sapiens, UniProt O95977); test: Late-stage fluorescence-based dose-response cell-based counterscreen assay to identify agonists of the Sphingosine 1-Phosphate Receptor 3 (S1P3): Sphingosine 1-Phosphate Receptor 4 (S1P4) agonist assay.; type: functional
[5] = target: T1, Sphingosine 1-phosphate receptor 2 (Homo sapiens, UniProt O95136); test: Dose Response Cell-Based Assay for Agonists of the Sphingosine 1-Phosphate Receptor 2 (S1P2): Purchased Analogues. [Related pubchem assays: 1192, 373, 439 ]; type: functional
[6] = target: DNA damage-inducible transcript 3 protein (Mus musculus, UniProt P35639); type: functional, Cricetulus griseus
[7] = target: T1, Sphingosine 1-phosphate receptor 2; test: Late-stage fluorescence-based dose-response cell-based counterscreen assay to identify agonists of the Sphingosine 1-Phosphate Receptor 3 (S1P3): Sphingosine 1-Phosphate Receptor 2 (S1P2) agonist assay.; type: functional
[8] = Luminescence Cell-Based Dose Retest to Confirm Inhibitors of Cancer Stem Cells. [Related pubchem assays (depositor defined):AID2717, AID2721]; type: functional; conditions: Homo sapiens
[9] = target: Melanocortin receptor 4 (Homo sapiens, UniProt P32245); type: functional, cell-based;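 further: Cell-based assay with luminescence read-out, confirmatory dose-response testing for agonist activity of biased ligands at MC4R; human U2OS cells with tagged receptor and beta-arrestin; potency of agonists that increase receptor coupling to beta-arrestin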
[10] = target: T2, Caspase-3 (Homo sapiens, UniProt P42574); test: inhibition of recombinant caspase-3 activity – biochemical, luminescence, set 2, selectivity assay for SENP protease inhibitor project, SAR follow-up (AID 588599); type: functional
T2 sequence (P42574 whole entry): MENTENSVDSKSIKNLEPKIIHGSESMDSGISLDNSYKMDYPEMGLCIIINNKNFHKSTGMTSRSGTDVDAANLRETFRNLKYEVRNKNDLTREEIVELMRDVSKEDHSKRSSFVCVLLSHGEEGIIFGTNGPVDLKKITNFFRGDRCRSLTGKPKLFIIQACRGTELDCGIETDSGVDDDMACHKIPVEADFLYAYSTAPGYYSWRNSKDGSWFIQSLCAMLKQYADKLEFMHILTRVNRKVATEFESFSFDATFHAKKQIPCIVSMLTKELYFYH

[11] = viability of uninfected HEp-2 cells – cell-based, HTS, cytotoxicity control for RSV inhibitor project, dose response (AID 2410); type: functional; conditions: human respiratory syncytial virus
[12] = target: T3, Sentrin-specific protease 8 (Homo sapiens, UniProt Q96LD8); test: inhibition of sentrin protease 8 – biochemical, luminescence, set 2, SAR follow-up (AID 588601); type: functional
T3 sequence (Q96LD8 whole entry): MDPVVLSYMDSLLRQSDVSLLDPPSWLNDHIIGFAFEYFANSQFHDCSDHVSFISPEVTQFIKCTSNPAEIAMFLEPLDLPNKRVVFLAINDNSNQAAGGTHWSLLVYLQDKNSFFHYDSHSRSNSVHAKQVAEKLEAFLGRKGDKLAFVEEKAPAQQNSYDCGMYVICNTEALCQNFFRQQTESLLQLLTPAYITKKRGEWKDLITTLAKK

[13] = target: T4, Sentrin-specific protease 6 (Homo sapiens, UniProt Q9GZR1); test: inhibition of human SENP6 catalytic domain – biochemical, luminescence, set 2, SAR follow-up (AID 588598); type: functional
T4 sequence (Q9GZR1 whole entry): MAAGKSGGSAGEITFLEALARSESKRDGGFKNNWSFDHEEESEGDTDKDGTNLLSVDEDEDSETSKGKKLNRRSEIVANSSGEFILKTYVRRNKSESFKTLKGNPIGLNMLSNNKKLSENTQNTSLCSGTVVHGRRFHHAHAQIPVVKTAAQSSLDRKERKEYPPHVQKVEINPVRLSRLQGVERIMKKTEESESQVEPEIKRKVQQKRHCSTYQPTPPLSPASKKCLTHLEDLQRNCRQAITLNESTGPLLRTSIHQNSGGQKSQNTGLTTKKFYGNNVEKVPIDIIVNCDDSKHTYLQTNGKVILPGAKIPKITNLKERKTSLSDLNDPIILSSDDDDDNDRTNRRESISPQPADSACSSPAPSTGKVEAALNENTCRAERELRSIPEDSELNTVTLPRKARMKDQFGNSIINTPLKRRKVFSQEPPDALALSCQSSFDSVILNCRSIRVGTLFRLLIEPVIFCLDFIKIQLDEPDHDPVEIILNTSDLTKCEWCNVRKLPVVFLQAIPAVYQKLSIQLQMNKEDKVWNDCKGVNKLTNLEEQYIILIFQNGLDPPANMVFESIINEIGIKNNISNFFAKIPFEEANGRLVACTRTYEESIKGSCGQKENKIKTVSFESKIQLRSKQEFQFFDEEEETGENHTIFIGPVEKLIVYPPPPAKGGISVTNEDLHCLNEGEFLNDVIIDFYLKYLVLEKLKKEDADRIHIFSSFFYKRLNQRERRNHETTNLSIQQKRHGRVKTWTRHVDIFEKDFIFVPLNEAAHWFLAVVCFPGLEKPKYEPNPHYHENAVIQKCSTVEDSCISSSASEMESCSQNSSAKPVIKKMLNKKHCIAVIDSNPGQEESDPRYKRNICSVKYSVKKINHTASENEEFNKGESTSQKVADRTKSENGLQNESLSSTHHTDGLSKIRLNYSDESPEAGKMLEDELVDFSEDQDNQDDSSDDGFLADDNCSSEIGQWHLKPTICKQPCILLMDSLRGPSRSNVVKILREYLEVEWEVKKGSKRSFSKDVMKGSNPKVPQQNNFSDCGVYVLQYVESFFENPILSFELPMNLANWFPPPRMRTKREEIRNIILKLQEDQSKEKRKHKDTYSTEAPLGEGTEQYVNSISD

[14] = target: T5, Sentrin-specific protease 7 (Homo sapiens, UniProt Q9BQF6); test: inhibition of human SENP7 cleavage activity – biochemical, luminescence, set 2, SAR follow-up (AID 588600); type: functional
T5 sequence (Q9BQF6 whole entry): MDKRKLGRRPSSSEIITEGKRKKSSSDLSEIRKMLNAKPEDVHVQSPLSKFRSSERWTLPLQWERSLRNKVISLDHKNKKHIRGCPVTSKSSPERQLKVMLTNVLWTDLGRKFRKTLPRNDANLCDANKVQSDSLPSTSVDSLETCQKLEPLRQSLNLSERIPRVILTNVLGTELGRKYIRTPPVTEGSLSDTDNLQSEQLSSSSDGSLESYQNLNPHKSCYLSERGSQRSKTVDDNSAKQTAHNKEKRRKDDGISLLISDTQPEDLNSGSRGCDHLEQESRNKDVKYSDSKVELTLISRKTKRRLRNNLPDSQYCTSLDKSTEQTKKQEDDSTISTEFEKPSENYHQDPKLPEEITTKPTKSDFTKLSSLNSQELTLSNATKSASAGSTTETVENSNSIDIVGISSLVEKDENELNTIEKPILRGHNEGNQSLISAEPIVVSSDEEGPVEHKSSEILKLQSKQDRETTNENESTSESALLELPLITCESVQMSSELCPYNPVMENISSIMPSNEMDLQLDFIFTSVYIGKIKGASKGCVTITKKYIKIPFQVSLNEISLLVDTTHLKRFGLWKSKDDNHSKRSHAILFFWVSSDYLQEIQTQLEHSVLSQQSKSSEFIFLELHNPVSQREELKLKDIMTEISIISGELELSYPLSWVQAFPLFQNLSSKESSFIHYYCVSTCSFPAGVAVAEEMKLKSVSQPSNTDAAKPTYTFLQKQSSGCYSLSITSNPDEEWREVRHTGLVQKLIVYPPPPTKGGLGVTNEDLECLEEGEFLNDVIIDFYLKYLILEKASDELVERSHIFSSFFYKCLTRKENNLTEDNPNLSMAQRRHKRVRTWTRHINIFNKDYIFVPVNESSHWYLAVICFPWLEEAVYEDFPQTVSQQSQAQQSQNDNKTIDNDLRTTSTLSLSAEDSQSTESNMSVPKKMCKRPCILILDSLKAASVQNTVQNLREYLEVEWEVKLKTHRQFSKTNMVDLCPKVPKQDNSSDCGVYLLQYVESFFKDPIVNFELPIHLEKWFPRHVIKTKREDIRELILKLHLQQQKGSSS

[15] = target: Neurotensin receptor type 1 (Homo sapiens, UniProt P30989); type: functional;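 further: Image-based confirmatory dose-response assay measuring agonist activity at NTR1; NTR1-expressing U2OS osteosarcoma cells imaged for beta-arrestin GFP spot formation; agonist potency where compounds increase beta-arrestin recruitment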
[16] = target: DNA dC->dU-editing enzyme APOBEC-3G (Homo sapiens, UniProt Q9HC16); test: inhibition of APOBEC3G ssDNA deamination – biochemical, fluorescence, single-stranded DNA substrate, SAR follow-up (AID 602136); type: functional; conditions: read-out: IC50_Mean
[17] = target: DNA dC->dU-editing enzyme APOBEC-3A (Homo sapiens, UniProt P31941); test: SAR analysis of small molecule inhibitors of APOBEC3A DNA Deaminase via a fluorescence-based single-stranded DNA deaminase assay.; type: functional; conditions: read-out: IC50_Mean
[18] = target: T6, Melanin-concentrating hormone receptor 1 (Homo sapiens, UniProt Q99705); test: Late-stage fluorescence-based counterscreen for antagonists of the G-protein coupled receptor 7 (GPR7): cell-based dose response assay to identify antagonists of the melanin-concentrating hormone receptor 1 (MCHR1) Set 5.; type: functional
[19] = target: T7, Neuropeptides B/W receptor type 1 (Homo sapiens, UniProt P48145); test: human NPBW1 receptor blockade, IC50 – cell-based, fluorescence, dose response, set 5, late-stage follow-up (AID 588566); type: functional
T7 sequence (P48145 whole entry): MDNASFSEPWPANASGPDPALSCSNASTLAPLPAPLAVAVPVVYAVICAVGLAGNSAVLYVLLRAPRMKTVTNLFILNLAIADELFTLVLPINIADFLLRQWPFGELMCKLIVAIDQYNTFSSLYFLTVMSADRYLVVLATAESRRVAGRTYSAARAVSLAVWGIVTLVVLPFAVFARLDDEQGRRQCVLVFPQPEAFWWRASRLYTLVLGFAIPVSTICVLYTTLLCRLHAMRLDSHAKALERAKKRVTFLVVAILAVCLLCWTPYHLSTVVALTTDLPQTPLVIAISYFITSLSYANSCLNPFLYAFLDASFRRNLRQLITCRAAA

[20] = target: T6, Melanin-concentrating hormone receptor 1; test: Late-stage fluorescence-based counterscreen for antagonists of the G-protein coupled receptor 7 (GPR7): cell-based dose response assay to identify antagonists of the melanin-concentrating hormone receptor 1 (MCHR1) Set 6.; type: functional
[21] = target: T7, Neuropeptides B/W receptor type 1; test: human NPBW1 receptor blockade, IC50 – cell-based, fluorescence, dose response, set 6, late-stage follow-up (AID 588583); type: functional
[22] = target: Latent membrane protein 1 (Human herpesvirus 4 (strain B95-8), UniProt P03230); test: LMP1 TES1 pathway selectivity over dsRED control – imaging, HEK293T, dual-color eGFP/dsRED, cherry-picks, selectivity assay for LMP1 NF-kB inhibitor project, dose response (AID 588398); type: functional, cell-based
Latent membrane protein 1, sequence (P03230 whole entry): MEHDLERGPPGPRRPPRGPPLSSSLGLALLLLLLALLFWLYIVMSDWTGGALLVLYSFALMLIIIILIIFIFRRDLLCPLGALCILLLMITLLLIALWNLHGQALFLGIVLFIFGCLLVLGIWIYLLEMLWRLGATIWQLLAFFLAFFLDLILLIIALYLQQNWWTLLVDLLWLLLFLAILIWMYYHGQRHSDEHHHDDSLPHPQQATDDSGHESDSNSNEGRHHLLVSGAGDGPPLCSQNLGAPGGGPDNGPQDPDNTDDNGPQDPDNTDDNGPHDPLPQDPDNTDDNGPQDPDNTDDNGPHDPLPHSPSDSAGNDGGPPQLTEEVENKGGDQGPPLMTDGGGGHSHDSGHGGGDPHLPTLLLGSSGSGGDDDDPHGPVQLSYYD

T6 sequence (Q99705 whole entry): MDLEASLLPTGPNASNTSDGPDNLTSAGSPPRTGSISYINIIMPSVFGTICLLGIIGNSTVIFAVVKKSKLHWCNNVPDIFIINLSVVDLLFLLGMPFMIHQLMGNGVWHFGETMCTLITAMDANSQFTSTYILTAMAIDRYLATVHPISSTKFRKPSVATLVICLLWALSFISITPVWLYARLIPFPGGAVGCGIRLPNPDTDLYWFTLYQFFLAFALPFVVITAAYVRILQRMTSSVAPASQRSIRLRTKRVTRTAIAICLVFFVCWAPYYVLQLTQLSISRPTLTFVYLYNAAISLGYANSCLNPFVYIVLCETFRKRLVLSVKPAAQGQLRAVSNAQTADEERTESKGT
T1 sequence (O95136 whole entry): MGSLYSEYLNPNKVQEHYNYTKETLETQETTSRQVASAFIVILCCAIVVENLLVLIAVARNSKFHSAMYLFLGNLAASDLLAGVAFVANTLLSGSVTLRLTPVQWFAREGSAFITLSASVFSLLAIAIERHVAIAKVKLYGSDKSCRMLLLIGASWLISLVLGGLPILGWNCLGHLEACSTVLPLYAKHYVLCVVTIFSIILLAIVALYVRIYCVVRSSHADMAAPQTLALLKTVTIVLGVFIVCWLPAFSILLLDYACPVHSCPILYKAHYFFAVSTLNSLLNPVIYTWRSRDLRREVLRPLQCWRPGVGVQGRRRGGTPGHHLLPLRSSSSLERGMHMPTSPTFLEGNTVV
DNA dC->dU-editing enzyme APOBEC-3A, sequence (P31941 whole entry): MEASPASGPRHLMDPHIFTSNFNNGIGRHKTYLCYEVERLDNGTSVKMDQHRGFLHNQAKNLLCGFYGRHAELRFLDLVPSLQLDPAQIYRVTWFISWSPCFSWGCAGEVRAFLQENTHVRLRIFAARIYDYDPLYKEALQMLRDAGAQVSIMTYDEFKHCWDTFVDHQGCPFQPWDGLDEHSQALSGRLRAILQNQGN
X-box-binding protein 1, sequence (P17861 whole entry): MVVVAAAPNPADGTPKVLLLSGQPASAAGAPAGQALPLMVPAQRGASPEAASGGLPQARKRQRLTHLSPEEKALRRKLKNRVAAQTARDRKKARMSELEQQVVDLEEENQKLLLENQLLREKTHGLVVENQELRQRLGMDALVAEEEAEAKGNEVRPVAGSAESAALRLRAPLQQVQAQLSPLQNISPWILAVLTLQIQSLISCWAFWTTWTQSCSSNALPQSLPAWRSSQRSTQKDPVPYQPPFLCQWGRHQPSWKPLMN
Melanocortin receptor 4, sequence (P32245 whole entry): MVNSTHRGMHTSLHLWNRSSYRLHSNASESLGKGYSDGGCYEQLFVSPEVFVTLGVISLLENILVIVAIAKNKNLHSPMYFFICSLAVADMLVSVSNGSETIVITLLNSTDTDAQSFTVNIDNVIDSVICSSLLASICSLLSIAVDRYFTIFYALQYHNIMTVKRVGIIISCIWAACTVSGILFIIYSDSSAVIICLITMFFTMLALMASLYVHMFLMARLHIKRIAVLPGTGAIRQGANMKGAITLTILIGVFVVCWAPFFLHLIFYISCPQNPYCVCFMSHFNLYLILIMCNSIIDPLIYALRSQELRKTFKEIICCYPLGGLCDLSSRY
Neurotensin receptor type 1, sequence (P30989 whole entry): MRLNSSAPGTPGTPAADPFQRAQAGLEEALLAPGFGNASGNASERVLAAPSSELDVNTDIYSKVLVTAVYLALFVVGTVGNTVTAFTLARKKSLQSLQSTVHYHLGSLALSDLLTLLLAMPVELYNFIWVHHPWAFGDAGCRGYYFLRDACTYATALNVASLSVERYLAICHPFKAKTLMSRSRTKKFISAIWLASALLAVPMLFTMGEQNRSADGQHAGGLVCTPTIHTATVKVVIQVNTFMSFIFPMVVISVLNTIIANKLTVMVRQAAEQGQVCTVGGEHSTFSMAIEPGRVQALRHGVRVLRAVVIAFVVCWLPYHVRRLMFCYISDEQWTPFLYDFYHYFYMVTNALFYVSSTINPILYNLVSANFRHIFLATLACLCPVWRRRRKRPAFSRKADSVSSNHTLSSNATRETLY
DNA damage-inducible transcript 3 protein, sequence (P35639 whole entry): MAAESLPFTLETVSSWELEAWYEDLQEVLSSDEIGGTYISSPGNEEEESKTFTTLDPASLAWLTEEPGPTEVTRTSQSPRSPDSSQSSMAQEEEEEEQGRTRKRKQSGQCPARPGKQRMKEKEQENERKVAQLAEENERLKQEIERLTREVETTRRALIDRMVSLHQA
DNA dC->dU-editing enzyme APOBEC-3G, sequence (Q9HC16 whole entry): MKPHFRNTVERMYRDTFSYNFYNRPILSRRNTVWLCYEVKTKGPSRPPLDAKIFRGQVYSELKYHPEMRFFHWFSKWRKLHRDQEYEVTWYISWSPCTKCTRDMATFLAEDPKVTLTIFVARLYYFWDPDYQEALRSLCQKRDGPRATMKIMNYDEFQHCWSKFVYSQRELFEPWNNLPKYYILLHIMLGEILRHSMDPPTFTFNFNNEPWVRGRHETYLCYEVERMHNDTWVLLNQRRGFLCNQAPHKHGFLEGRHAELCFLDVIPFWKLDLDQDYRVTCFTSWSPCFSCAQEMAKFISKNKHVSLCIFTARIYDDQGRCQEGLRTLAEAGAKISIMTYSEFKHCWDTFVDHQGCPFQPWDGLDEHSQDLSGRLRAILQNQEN
Sphingosine 1-phosphate receptor 4, sequence (O95977 whole entry): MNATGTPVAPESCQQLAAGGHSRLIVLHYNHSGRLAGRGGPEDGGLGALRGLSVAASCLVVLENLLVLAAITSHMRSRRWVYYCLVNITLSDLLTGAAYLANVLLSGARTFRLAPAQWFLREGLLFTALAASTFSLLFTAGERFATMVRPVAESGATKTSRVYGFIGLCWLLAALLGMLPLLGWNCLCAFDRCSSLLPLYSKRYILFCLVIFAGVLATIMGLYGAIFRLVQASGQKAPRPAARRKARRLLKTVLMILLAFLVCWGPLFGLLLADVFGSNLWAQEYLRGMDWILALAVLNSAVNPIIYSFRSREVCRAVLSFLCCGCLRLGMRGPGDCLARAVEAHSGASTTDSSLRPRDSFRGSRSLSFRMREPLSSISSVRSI
Sphingosine 1-phosphate receptor 1, sequence (P21453 whole entry): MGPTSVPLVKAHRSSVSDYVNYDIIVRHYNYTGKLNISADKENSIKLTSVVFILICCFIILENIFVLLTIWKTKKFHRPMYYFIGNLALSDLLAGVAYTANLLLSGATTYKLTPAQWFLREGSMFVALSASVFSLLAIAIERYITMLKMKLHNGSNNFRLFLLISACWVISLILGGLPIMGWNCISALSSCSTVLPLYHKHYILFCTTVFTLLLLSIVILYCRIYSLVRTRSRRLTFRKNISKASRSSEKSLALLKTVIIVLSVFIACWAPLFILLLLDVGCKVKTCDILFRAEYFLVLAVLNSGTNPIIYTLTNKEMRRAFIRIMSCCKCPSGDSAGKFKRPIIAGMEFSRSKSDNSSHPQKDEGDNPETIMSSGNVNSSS
Sphingosine 1-phosphate receptor 3, sequence (Q99500 whole entry): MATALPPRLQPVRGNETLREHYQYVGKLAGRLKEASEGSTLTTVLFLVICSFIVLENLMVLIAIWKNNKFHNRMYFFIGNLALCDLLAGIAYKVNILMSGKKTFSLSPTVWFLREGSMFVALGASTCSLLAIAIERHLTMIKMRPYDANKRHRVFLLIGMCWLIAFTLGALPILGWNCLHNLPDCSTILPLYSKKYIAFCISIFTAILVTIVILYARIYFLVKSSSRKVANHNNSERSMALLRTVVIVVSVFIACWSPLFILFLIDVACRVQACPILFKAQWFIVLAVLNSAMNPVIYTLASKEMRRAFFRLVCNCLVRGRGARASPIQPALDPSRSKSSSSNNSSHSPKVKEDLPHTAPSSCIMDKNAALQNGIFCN

Structure (SMILES): CCCc1cc(C(=O)N(C2CCCCC2)C2CCCCC2)no1
Absolute IC50 (XBP1) [1]: 10 µM
EC50 [2]: > 50 µM (not active)
EC50 [3]: 243 nM (active)
EC50 [4]: > 50 µM (inactive)
EC50 [5]: > 10 µM (not active)
Absolute IC50 (CHOP) [6]: 10 µM
EC50 [7]: > 50 µM (inactive)

Structure (SMILES): O=C(N/N=C/c1c[nH]c2ccccc12)C1CC1(c1ccccc1)c1ccccc1 (configuration not stated)
AC50 [8]: 4.64 µM (active)
EC50 [9]: > 89.2 µM (inactive)
IC50 [10]: > 99 µM (inactive)
CC50 [11]: 16 µM (active)
IC50 [12]: > 99 µM (inactive)
IC50 [13]: > 99 µM (inactive)
IC50 [14]: > 99 µM (inactive)
EC50 [15]: 12.3 µM (active)

Structure (SMILES): O=C(CSc1nc2cccnc2[nH]1)Nc1cccc(Br)c1
IC50 [16]: > 99 µM (inactive)
IC50 [17]: > 99 µM (inactive)

Next, values leading:

IC50 [18]: > 20 µM (inactive)
IC50 [19]: 234 nM (active)
Structure (SMILES): CCOc1ccc(C(C#N)c2c(Cl)cnn(Cc3cccc4ccccc34)c2=O)cc1 (configuration not stated)

IC50 [20]: 706 nM (active)
IC50 [21]: 706 nM (active)
Structure (SMILES): N#CC(c1c(F)cccc1Cl)c1c(Cl)cnn(Cc2cccc3ccccc23)c1=O (configuration not stated)

AC50 [22]: 70.2 µM (active)
Structure (SMILES): CCN1C(=O)[C@@H]2[C@@H](c3ccc(-c4ccc(Cl)c(Cl)c4)cc3)N3CCC[C@@]3(C(=O)OC)[C@@H]2C1=O
